Data: PMC10638507 (Acta Pharmaceutica Sinica. B, 2023)

Tests used:
Format in all cases: biochemical, Paris polyphylla var. yunnanensis
UGT80A41 = experiment: initial rates of glucoside formation, UPLC-MS/MS, Michaelis-Menten fit; settings: read-out: apparent KM; 2 mmol/L UDP-glucose, 50 mmol/L Tris-HCl pH 8.0, 37 °C, 30 min
UGT80A40 = experiment: as above; settings: read-out: apparent KM; 2 mmol/L UDP-glucose, 50 mmol/L Tris-HCl pH 8.0, 37 °C, 30 min
UGT73CE1 = experiment: initial rates of rhamnoside formation, UPLC-MS/MS, Michaelis-Menten fit; settings: read-out: apparent KM; 1.5 mmol/L UDP-rhamnose, 50 mmol/L Tris-HCl pH 8.0, 37 °C, 30 min

| SMILES | Km (UGT80A41) [µM] | Km (UGT80A40) [µM] | Km (UGT73CE1) [µM] |
| --- | --- | --- | --- |
| C[C@@H]1CC[C@@]2(OC1)O[C@H]1C[C@H]3[C@@H]4CC=C5C[C@@H](O)CC[C@]5(C)[C@H]4CC[C@]3(C)[C@H]1[C@@H]2C [compound 1, diosgenin] | 5.9 ± 0.5 | 6.1 ± 0.7 | – |
| C[C@@H]1CC[C@@]2(OC1)O[C@H]1C[C@H]3[C@@H]4CC=C5C[C@@H](O[C@@H]6O[C@H](CO)[C@@H](O)[C@H](O)[C@H]6O)CC[C@]5(C)[C@H]4CC[C@]3(C)[C@H]1[C@@H]2C [compound 3, trillin] | – | – | 7.1 ± 2.1 |
